Organism: Rattus norvegicus
Assay: Open TG-GATES - Regimen: Single
Assay type: toxicity, organism-based, Sprague-Dawley
Parameters: regimen Single, gender Male, age 6 weeks
Details: in vivo, po, 30 mg/kg, route gavage, dose level Low; for APTT / Bas / Eos / Fbg / Hb / Ht / Lym / MCH / MCHC / MCV / Mono / Neu / PT / Plat / RBC / Ret / WBC: tissue Blood; for KIDNEY_L / KIDNEY_R / KIDNEY_TOTAL: tissue Kidney; for LIVER: tissue Liver; for A/G / ALP / ALT / AST / BUN / CRE / Ca / Cl / DBIL / GLC / IP / K / LDH / Na / PL / RALB / TBIL / TC / TG / TP / gamma-GTP: tissue Plasma

CCCNC(=O)NS(=O)(=O)c1ccc(Cl)cc1 [CHLORPROPAMIDE]
TERMINAL_BW (3 h): 200 g | APTT (3 h): 16.8 s | Bas (3 h): 0.4% | Eos (3 h): 0.8% | Fbg (3 h): 301.8 mg/dL | Hb (3 h): 13.1 g/dL | Ht (3 h): 40% | Lym (3 h): 76.8% | MCH (3 h): 20.9 pg | MCHC (3 h): 32.7% | MCV (3 h): 64 fL | Mono (3 h): 3.6% | Neu (3 h): 17.8% | PT (3 h): 15.6 s | Plat (3 h): 122.9 x10_4/uL | RBC (3 h): 625.4 x10_4/ul | Ret (3 h): 9.8% | WBC (3 h): 80.3 x10_2/uL | KIDNEY_L (3 h): 0.9 g | KIDNEY_R (3 h): 0.9 g | KIDNEY_TOTAL (3 h): 1.8 g | LIVER (3 h): 8.7 g | A/G (3 h): 0.9 | ALP (3 h): 1308.8 IU/L | ALT (3 h): 44 IU/L | AST (3 h): 74.4 IU/L | BUN (3 h): 10.6 mg/dL | CRE (3 h): 0.2 mg/dL | Ca (3 h): 10.8 mg/dL | Cl (3 h): 106.2 meq/L | DBIL (3 h): 0.008 mg/dL | GLC (3 h): 154.4 mg/dL | IP (3 h): 9.5 mg/dL | K (3 h): 4 meq/L | LDH (3 h): 83.6 IU/L | Na (3 h): 143 meq/L | PL (3 h): 131.4 mg/dL | RALB (3 h): 2.5 g/dL | TBIL (3 h): 0.038 mg/dL | TC (3 h): 74.2 mg/dL | TG (3 h): 47.2 mg/dL | TP (3 h): 5.4 g/dL | gamma-GTP (3 h): 1.2 IU/L | TERMINAL_BW (6 h): 197.5 g | APTT (6 h): 17.5 s | Bas (6 h): 0.2% | Eos (6 h): 1% | Fbg (6 h): 277.8 mg/dL | Hb (6 h): 13.3 g/dL | Ht (6 h): 40.8% | Lym (6 h): 74.4% | MCH (6 h): 21 pg | MCHC (6 h): 32.7% | MCV (6 h): 64.3 fL | Mono (6 h): 2.8% | Neu (6 h): 20.4% | PT (6 h): 15.4 s | Plat (6 h): 114.9 x10_4/uL | RBC (6 h): 633.4 x10_4/ul | Ret (6 h): 9.6% | WBC (6 h): 80.6 x10_2/uL | KIDNEY_L (6 h): 0.9 g | KIDNEY_R (6 h): 0.9 g | KIDNEY_TOTAL (6 h): 1.8 g | LIVER (6 h): 8.1 g | A/G (6 h): 0.9 | ALP (6 h): 1395.6 IU/L | ALT (6 h): 41 IU/L | AST (6 h): 75.4 IU/L | BUN (6 h): 9 mg/dL | CRE (6 h): 0.2 mg/dL | Ca (6 h): 10.5 mg/dL | Cl (6 h): 106.8 meq/L | DBIL (6 h): 0.004 mg/dL | GLC (6 h): 150.8 mg/dL | IP (6 h): 9.4 mg/dL | K (6 h): 4.2 meq/L | LDH (6 h): 72.6 IU/L | Na (6 h): 143 meq/L | PL (6 h): 123.6 mg/dL | RALB (6 h): 2.5 g/dL | TBIL (6 h): 0.036 mg/dL | TC (6 h): 74.2 mg/dL | TG (6 h): 35.4 mg/dL | TP (6 h): 5.2 g/dL | gamma-GTP (6 h): 1 IU/L | TERMINAL_BW (9 h): 194.6 g | APTT (9 h): 16.9 s | Bas (9 h): 0% | Eos (9 h): 1.2% | Fbg (9 h): 296 mg/dL | Hb (9 h): 13.2 g/dL | Ht (9 h): 40.5% | Lym (9 h): 77.4% | MCH (9 h): 21.4 pg | MCHC (9 h): 32.6% | MCV (9 h): 65.5 fL | Mono (9 h): 3.2% | Neu (9 h): 17.2% | PT (9 h): 15.4 s | Plat (9 h): 118 x10_4/uL | RBC (9 h): 618.6 x10_4/ul | Ret (9 h): 9.1% | WBC (9 h): 84.5 x10_2/uL | KIDNEY_L (9 h): 0.9 g | KIDNEY_R (9 h): 0.9 g | KIDNEY_TOTAL (9 h): 1.7 g | LIVER (9 h): 7.7 g | A/G (9 h): 0.9 | ALP (9 h): 1280.4 IU/L | ALT (9 h): 38 IU/L | AST (9 h): 70.8 IU/L | BUN (9 h): 9.8 mg/dL | CRE (9 h): 0.2 mg/dL | Ca (9 h): 10.6 mg/dL | Cl (9 h): 107.8 meq/L | DBIL (9 h): 0.002 mg/dL | GLC (9 h): 158.4 mg/dL | IP (9 h): 9.8 mg/dL | K (9 h): 4.1 meq/L | LDH (9 h): 62.2 IU/L | Na (9 h): 143.4 meq/L | PL (9 h): 134 mg/dL | RALB (9 h): 2.5 g/dL | TBIL (9 h): 0.032 mg/dL | TC (9 h): 81.4 mg/dL | TG (9 h): 43.4 mg/dL | TP (9 h): 5.4 g/dL | gamma-GTP (9 h): 1 IU/L | TERMINAL_BW (24 h): 210.7 g | APTT (24 h): 26 s | Bas (24 h): 0% | Eos (24 h): 1% | Fbg (24 h): 290 mg/dL | Hb (24 h): 13 g/dL | Ht (24 h): 40.1% | Lym (24 h): 79.2% | MCH (24 h): 21.4 pg | MCHC (24 h): 32.4% | MCV (24 h): 65.9 fL | Mono (24 h): 3% | Neu (24 h): 15.2% | PT (24 h): 15.6 s | Plat (24 h): 120.5 x10_4/uL | RBC (24 h): 608.2 x10_4/ul | Ret (24 h): 8.4% | WBC (24 h): 96.6 x10_2/uL | KIDNEY_L (24 h): 0.9 g | KIDNEY_R (24 h): 0.9 g | KIDNEY_TOTAL (24 h): 1.9 g | LIVER (24 h): 9.6 g | A/G (24 h): 0.9 | ALP (24 h): 1710 IU/L | ALT (24 h): 47.6 IU/L | AST (24 h): 73 IU/L | BUN (24 h): 15 mg/dL | CRE (24 h): 0.2 mg/dL | Ca (24 h): 10.8 mg/dL | Cl (24 h): 105.4 meq/L | DBIL (24 h): 0.01 mg/dL | GLC (24 h): 192.8 mg/dL | IP (24 h): 8.4 mg/dL | K (24 h): 4.1 meq/L | LDH (24 h): 78.4 IU/L | Na (24 h): 142.4 meq/L | PL (24 h): 150.2 mg/dL | RALB (24 h): 2.6 g/dL | TBIL (24 h): 0.034 mg/dL | TC (24 h): 84 mg/dL | TG (24 h): 73.8 mg/dL | TP (24 h): 5.5 g/dL | gamma-GTP (24 h): 1 IU/L

— ChEMBL document CHEMBL3885861, “Open TG-GATES”
